PubChem BioAssay (NCI)
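Results reflect a 48-hour exposure of cells in 96-well plates to compound at five concentrations. TGI: total growth inhibition.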

Experiments:
Assay in all cases: growth of human tumour cells (NCI), 48 h
HCT-15 colon = tested on: HCT-15 colon
NCI-H460 lung = tested on: NCI-H460 lung
NCI/ADR-RES ovarian = tested on: NCI/ADR-RES ovarian
RPMI-8226 leukemia = tested on: RPMI-8226 leukemia
LOX IMVI melanoma = tested on: LOX IMVI melanoma
786-0 renal = tested on: 786-0 renal
SW-620 colon = tested on: SW-620 colon
EKVX NSCLC = tested on: EKVX NSCLC
T-47D breast = tested on: T-47D breast
SF-268 CNS = tested on: SF-268 CNS
HS 578T breast = tested on: HS 578T breast
SK-MEL-28 melanoma = tested on: SK-MEL-28 melanoma
MDA-N = tested on: MDA-N
CCRF-CEM leukemia = tested on: CCRF-CEM leukemia
MALME-3M melanoma = tested on: MALME-3M melanoma
SF-539 CNS = tested on: SF-539 CNS
UACC-257 melanoma = tested on: UACC-257 melanoma
DU-145 prostate = tested on: DU-145 prostate
SNB-75 CNS = tested on: SNB-75 CNS
HCT-116 colon = tested on: HCT-116 colon
NCI-H226 lung = tested on: NCI-H226 lung
HL-60(TB) leukemia = tested on: HL-60(TB) leukemia
SF-295 CNS = tested on: SF-295 CNS
SK-MEL-5 melanoma = tested on: SK-MEL-5 melanoma
HCC-2998 colon = tested on: HCC-2998 colon
HOP-92 NSCLC = tested on: HOP-92 NSCLC
COLO 205 colon = tested on: COLO 205 colon
SN12C renal = tested on: SN12C renal
NCI-H522 lung = tested on: NCI-H522 lung
PC-3 prostate = tested on: PC-3 prostate
SNB-19 CNS = tested on: SNB-19 CNS
KM12 colon = tested on: KM12 colon
SR leukemia = tested on: SR leukemia
A549 NSCLC = tested on: A549 NSCLC
BT-549 breast = tested on: BT-549 breast
NCI-H23 lung = tested on: NCI-H23 lung
HT29 colon = tested on: HT29 colon
UO-31 renal = tested on: UO-31 renal
OVCAR-4 ovarian = tested on: OVCAR-4 ovarian
HOP-62 NSCLC = tested on: HOP-62 NSCLC
M14 melanoma = tested on: M14 melanoma
OVCAR-8 ovarian = tested on: OVCAR-8 ovarian
CAKI-1 renal = tested on: CAKI-1 renal
RXF 393 renal = tested on: RXF 393 renal
MOLT-4 leukemia = tested on: MOLT-4 leukemia
IGROV1 ovarian = tested on: IGROV1 ovarian
MCF7 breast = tested on: MCF7 breast
MDA-MB-231 breast = tested on: MDA-MB-231 breast
SK-OV-3 ovarian = tested on: SK-OV-3 ovarian
ACHN renal = tested on: ACHN renal
MDA-MB-435 = tested on: MDA-MB-435
UACC-62 melanoma = tested on: UACC-62 melanoma
K-562 leukemia = tested on: K-562 leukemia
TK-10 renal = tested on: TK-10 renal
A498 renal = tested on: A498 renal
OVCAR-5 ovarian = tested on: OVCAR-5 ovarian
U251 CNS = tested on: U251 CNS
OVCAR-3 ovarian = tested on: OVCAR-3 ovarian

COCc1nc(C#N)c(N)o1
TGI (HCT-15 colon): > 10 µM
TGI (NCI-H460 lung): > 10 µM
TGI (NCI/ADR-RES ovarian): > 10 µM
TGI (RPMI-8226 leukemia): > 10 µM
TGI (LOX IMVI melanoma): > 10 µM
TGI (786-0 renal): > 10 µM
TGI (SW-620 colon): > 10 µM
TGI (EKVX NSCLC): > 10 µM
TGI (T-47D breast): > 10 µM
TGI (SF-268 CNS): > 10 µM
TGI (HS 578T breast): > 10 µM
TGI (SK-MEL-28 melanoma): > 10 µM
TGI (MDA-N): > 10 µM
TGI (CCRF-CEM leukemia): > 10 µM
TGI (MALME-3M melanoma): > 10 µM
TGI (SF-539 CNS): > 10 µM
TGI (UACC-257 melanoma): > 10 µM
TGI (DU-145 prostate): > 10 µM
TGI (SNB-75 CNS): > 10 µM
TGI (HCT-116 colon): > 10 µM
TGI (NCI-H226 lung): > 10 µM
TGI (HL-60(TB) leukemia): > 10 µM
TGI (SF-295 CNS): > 10 µM
TGI (SK-MEL-5 melanoma): > 10 µM
TGI (HCC-2998 colon): > 10 µM
TGI (HOP-92 NSCLC): > 10 µM
TGI (COLO 205 colon): > 10 µM
TGI (SN12C renal): > 10 µM
TGI (NCI-H522 lung): > 10 µM
TGI (PC-3 prostate): > 10 µM
TGI (SNB-19 CNS): > 10 µM
TGI (KM12 colon): > 10 µM
TGI (SR leukemia): > 10 µM
TGI (A549 NSCLC): > 10 µM
TGI (BT-549 breast): > 10 µM
TGI (NCI-H23 lung): > 10 µM
TGI (HT29 colon): > 10 µM
TGI (UO-31 renal): > 10 µM
TGI (OVCAR-4 ovarian): > 10 µM
TGI (HOP-62 NSCLC): > 10 µM
TGI (M14 melanoma): > 10 µM
TGI (OVCAR-8 ovarian): > 10 µM
TGI (CAKI-1 renal): > 10 µM
TGI (RXF 393 renal): > 10 µM
TGI (MOLT-4 leukemia): > 10 µM
TGI (IGROV1 ovarian): > 10 µM
TGI (MCF7 breast): > 10 µM
TGI (MDA-MB-231 breast): > 10 µM
TGI (SK-OV-3 ovarian): > 10 µM
TGI (ACHN renal): > 10 µM
TGI (MDA-MB-435): > 10 µM
TGI (UACC-62 melanoma): > 10 µM
TGI (K-562 leukemia): > 10 µM
TGI (TK-10 renal): > 10 µM

COc1cc(OC)cc(Oc2nc3ccc(C(F)(F)F)cc3nc2-c2ccccc2)c1
TGI (HCT-15 colon): > 100 µM
TGI (NCI-H460 lung): > 100 µM
TGI (NCI/ADR-RES ovarian): > 100 µM
TGI (RPMI-8226 leukemia): > 100 µM
TGI (LOX IMVI melanoma): > 100 µM
TGI (A498 renal): > 100 µM
TGI (786-0 renal): > 100 µM
TGI (SW-620 colon): > 100 µM
TGI (EKVX NSCLC): > 100 µM
TGI (T-47D breast): > 100 µM
TGI (SF-268 CNS): > 100 µM
TGI (HS 578T breast): > 100 µM
TGI (OVCAR-5 ovarian): > 100 µM
TGI (SK-MEL-28 melanoma): > 100 µM
TGI (MDA-N): > 100 µM
TGI (CCRF-CEM leukemia): > 100 µM
TGI (MALME-3M melanoma): > 100 µM
TGI (SF-539 CNS): > 100 µM
TGI (UACC-257 melanoma): > 100 µM
TGI (U251 CNS): > 100 µM
TGI (DU-145 prostate): > 100 µM
TGI (SNB-75 CNS): > 100 µM
TGI (HCT-116 colon): > 100 µM
TGI (NCI-H226 lung): > 100 µM
TGI (HL-60(TB) leukemia): > 100 µM
TGI (SF-295 CNS): > 100 µM
TGI (SK-MEL-5 melanoma): > 100 µM
TGI (HCC-2998 colon): > 100 µM
TGI (HOP-92 NSCLC): > 100 µM
TGI (COLO 205 colon): > 100 µM
TGI (NCI-H522 lung): > 100 µM
TGI (PC-3 prostate): > 100 µM
TGI (KM12 colon): > 100 µM
TGI (SR leukemia): > 100 µM
TGI (A549 NSCLC): > 100 µM
TGI (OVCAR-3 ovarian): > 100 µM
TGI (BT-549 breast): > 100 µM
TGI (NCI-H23 lung): > 100 µM
TGI (HT29 colon): > 100 µM
TGI (UO-31 renal): > 100 µM
TGI (OVCAR-4 ovarian): > 100 µM
TGI (HOP-62 NSCLC): > 100 µM
TGI (OVCAR-8 ovarian): > 100 µM
TGI (CAKI-1 renal): > 100 µM
TGI (RXF 393 renal): > 100 µM
TGI (MOLT-4 leukemia): > 100 µM
TGI (IGROV1 ovarian): > 100 µM
TGI (MCF7 breast): > 100 µM
TGI (MDA-MB-231 breast): > 100 µM
TGI (SK-OV-3 ovarian): > 100 µM
TGI (ACHN renal): > 100 µM
TGI (MDA-MB-435): > 100 µM
TGI (UACC-62 melanoma): > 100 µM
TGI (K-562 leukemia): > 100 µM
TGI (TK-10 renal): > 100 µM
